Columns and labels:
[1] = rabbit; in the absence of an inhibitor
[2] = system: rPCEC; assay: Cellular accumulation of [14C] erythromycin in rPCEC; format: cell-based, rabbit
[3] = system: rPCEC; assay: Cell proliferation assay; format: cell-based, rabbit; conditions: steroid 500 μM with erythromycin, 12 h, data not shown
[4] = target: P-gp (Homo sapiens, UniProt P08183); assay: Bi-directional transport across MDCK-MDR1 cell monolayers; format: in vitro ADME; conditions: MDCK-MDR1, pH 7.4
[5] = target: MRP2 (Homo sapiens, UniProt Q92887); assay: Bi-directional transport across MDCK-MRP2 cell monolayers; format: in vitro ADME; conditions: pH 7.4
MRP2, sequence (Q92887 whole entry): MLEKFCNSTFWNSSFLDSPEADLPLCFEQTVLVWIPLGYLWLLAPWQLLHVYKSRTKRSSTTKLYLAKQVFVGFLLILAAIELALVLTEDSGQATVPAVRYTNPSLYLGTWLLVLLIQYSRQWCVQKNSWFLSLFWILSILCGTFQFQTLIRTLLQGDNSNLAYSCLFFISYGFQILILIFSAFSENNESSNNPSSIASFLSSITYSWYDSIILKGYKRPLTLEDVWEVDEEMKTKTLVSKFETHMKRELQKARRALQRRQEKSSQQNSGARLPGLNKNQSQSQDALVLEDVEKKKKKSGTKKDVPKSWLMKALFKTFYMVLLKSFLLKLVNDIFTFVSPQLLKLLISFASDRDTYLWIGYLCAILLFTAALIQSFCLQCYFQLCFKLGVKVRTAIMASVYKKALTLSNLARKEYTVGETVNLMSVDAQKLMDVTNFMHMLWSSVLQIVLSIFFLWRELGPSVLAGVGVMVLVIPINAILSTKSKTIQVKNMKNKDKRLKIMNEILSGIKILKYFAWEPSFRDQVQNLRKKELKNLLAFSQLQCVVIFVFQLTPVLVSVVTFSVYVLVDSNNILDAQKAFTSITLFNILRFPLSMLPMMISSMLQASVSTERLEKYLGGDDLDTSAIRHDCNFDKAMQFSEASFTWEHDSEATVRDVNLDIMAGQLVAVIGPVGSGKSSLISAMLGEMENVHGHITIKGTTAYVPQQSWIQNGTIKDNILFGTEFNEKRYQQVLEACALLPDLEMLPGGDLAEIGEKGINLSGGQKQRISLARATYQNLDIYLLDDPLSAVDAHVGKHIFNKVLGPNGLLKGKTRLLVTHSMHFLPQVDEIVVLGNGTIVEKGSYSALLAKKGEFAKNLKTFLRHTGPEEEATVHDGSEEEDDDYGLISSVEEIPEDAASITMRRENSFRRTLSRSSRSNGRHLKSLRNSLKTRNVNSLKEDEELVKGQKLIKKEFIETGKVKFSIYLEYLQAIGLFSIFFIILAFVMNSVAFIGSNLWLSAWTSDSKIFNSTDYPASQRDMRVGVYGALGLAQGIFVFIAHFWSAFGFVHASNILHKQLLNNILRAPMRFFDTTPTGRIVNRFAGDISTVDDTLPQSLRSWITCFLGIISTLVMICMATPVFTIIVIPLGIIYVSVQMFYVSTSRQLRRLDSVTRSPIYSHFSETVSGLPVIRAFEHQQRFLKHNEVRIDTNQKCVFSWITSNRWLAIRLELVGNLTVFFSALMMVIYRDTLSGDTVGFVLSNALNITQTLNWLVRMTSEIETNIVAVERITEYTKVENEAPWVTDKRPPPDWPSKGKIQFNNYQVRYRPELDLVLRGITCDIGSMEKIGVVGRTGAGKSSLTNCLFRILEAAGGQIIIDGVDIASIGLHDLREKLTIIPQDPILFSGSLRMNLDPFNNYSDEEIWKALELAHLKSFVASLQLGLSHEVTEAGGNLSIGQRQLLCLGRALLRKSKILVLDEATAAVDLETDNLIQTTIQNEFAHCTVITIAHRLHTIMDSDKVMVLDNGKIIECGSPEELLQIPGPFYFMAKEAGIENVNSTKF

P-gp, sequence (P08183 whole entry): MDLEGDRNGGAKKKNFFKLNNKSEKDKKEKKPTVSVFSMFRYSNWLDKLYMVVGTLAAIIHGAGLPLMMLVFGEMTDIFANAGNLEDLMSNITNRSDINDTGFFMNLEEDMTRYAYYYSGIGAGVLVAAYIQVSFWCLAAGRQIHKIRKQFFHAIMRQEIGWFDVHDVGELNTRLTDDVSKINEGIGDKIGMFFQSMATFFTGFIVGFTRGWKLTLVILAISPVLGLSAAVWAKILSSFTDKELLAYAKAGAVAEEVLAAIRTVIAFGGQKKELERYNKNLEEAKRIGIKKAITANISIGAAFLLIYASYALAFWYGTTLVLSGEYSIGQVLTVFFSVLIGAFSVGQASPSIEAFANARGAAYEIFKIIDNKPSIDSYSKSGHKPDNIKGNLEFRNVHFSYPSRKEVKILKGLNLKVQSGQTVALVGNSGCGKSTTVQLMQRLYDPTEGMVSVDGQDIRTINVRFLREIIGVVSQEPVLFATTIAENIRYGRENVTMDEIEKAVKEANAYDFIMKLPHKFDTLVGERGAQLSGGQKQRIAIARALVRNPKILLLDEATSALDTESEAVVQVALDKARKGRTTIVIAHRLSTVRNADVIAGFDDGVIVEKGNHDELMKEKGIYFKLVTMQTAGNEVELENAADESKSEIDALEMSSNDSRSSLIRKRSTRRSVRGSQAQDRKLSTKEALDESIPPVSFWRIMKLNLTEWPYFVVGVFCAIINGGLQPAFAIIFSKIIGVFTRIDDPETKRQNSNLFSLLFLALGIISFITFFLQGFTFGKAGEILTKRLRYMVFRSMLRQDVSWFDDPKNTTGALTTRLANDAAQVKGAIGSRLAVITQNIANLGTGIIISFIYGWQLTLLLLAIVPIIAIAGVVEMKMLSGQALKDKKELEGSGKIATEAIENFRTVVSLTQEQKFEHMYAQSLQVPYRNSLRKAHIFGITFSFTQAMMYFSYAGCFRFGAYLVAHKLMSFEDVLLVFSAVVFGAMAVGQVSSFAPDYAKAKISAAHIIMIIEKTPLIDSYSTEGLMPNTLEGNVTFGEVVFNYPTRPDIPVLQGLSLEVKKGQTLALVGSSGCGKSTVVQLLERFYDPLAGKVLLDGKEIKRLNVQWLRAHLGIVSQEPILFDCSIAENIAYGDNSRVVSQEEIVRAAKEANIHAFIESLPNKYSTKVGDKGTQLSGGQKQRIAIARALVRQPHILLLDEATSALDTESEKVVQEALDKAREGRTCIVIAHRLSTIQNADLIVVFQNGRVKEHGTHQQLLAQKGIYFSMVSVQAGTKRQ

## CC[C@H]1OC(=O)[C@H](C)[C@@H](O[C@H]2C[C@@](C)(OC)[C@@H](O)[C@H](C)O2)[C@H](C)[C@@H](O[C@@H]2O[C@H](C)C[C@H](N(C)C)[C@H]2O)[C@](C)(O)C[C@@H](C)C(=O)[C@H](C)[C@@H](O)[C@]1(C)O [Ery, erythromycin]
[1]
  Corneal absorption rate constant (ka) of erythromycin: 4.54±0.62×10^−5 min^−1

## CN(C)C(=O)CCSC(SCCC(=O)O)c1cccc(/C=C/c2ccc3ccc(Cl)cc3n2)c1 (stereo not shown) [MK571]
[2]; [14C] erythromycin 0.25 μCi/ml, 15 min, GF120918 2 μM, MK571 50 μM
  Cellular accumulation of [^14C] erythromycin in the presence of specific inhibitor, relative to control: 310%

## C[C@H]1C[C@@H]2[C@H]([C@@H](O)C[C@@]3(C)[C@H]2CC[C@]3(O)C(=O)CO)[C@@]2(C)C=CC(=O)C=C12 [MPL, 6α-methyl prednisolone]
[3]
  Cellular toxicity (percentage of viable cells vs control): not toxic
[2]; [14C] erythromycin 0.25 μCi/ml, 15 min, steroid 500 μM
  Cellular accumulation of [^14C] erythromycin increased by, relative to control: 375%
[2]; steroid 500 μM
  Inhibition of erythromycin efflux: complete inhibition

## C[C@]12C=CC(=O)C=C1CC[C@@H]1[C@@H]2[C@@H](O)C[C@@]2(C)[C@H]1CC[C@]2(O)C(=O)CO [PL, prednisolone]
[3]
  Cellular toxicity (percentage of viable cells vs control): not toxic
[2]; steroid 500 μM
  Inhibition of erythromycin efflux: ~80%

## C[C@]12C=CC(=O)C=C1CC[C@@H]1[C@@H]2C(=O)C[C@@]2(C)[C@H]1CC[C@]2(O)C(=O)CO [PS, prednisone]
[4]
  Papp A→B at 3.5 h, 10 μM: 6.97 ± 0.21 ×10⁻⁶ cm/s
  Papp B→A at 3.5 h, 10 μM: 17.7 ± 0.47 ×10⁻⁶ cm/s
[3]
  Cellular toxicity (percentage of viable cells vs control): not toxic
[5]
  Papp A→B at 3.5 h, 10 μM: 6.04 ± 0.15 ×10⁻⁶ cm/s
  Papp B→A at 3.5 h, 10 μM: 17.8 ± 0.22 ×10⁻⁶ cm/s
[2]; steroid 500 μM
  Inhibition of erythromycin efflux: ~80%

Reference: article PMC4516224 (Pharmaceutical research, 2008)
